# Marks after values point to notes of the source that are not given here.
# What was measured:
# [1] = test system: FXa; assay: Anti-FXa levels determined chromogenically (ACL-TOP) in plasma treated ex vivo with enoxaparin; type: biochemical, human; settings: for Anti FXa levels (IU/mL): median
# Excerpt: (§1) Citrated plasma samples were thawed immediately prior to use. First, plasma from healthy, uninjured volunteers was used to optimize ex vivo dosing of enoxaparin. […] Given that the inventors spiked plasma with an enoxaparin dose of 0.13 IU/mL, our target anti-FXa level in response to enoxaparin was defined as 0.13 IU/mL. The responses to enoxaparin between healthy uninjured volunteers and trauma patients were compared by treating all plasma samples ex vivo with 0.13 IU/mL of enoxaparin. Trauma patient samples were additionally supplemented with AT using either FFP at a dose of 30% volume or AT concentrate in the form of THROMBATE III®, provided by Grifols, up to 80%, 120%, 150%, 180%, and 200% final concentration based on baseline values. This was done in an effort to improve patient plasma responses to enoxaparin to the levels observed in healthy controls. Similar to our previous work, the inventors chose FFP at a dose of 30% volume to model the effects of transfusing six units of plasma. Calculations were based on the activity (IUs) provided by the manufacturer for a given lot of THROMB ATE III® (approximately 500 IUs/10 mL) and the patient's baseline AT activity levels. AT supplementation was confirmed by measuring AT activity using ACL-TOP. Thrombin generation and anti-FXa levels were measured to assess the response to enoxaparin and supplementation with AT. Healthy volunteer plasma served as an uninjured control for normal AT, anti-FXa, and thrombin generation levels before and after treatment with enoxaparin.
# (§2) AT activity and anti-FXa levels were determined chromogenically using an ACL-TOP Coagulation Analyzer (Instrumentation Laboratory, Bedford Mass.). Thrombin generation was measured using a calibrated automated thrombogram (CAT) (Thermo Fisher Scientific, Waltham Mass.) as previously described. Relevant parameters resulting from CAT analysis include lag time (the time to initiation of thrombin generation; min), peak (the highest amount of thrombin generated; nM), time to peak [ttpeak] (the time it takes to achieve the peak; min), endogenous thrombin potential [ETP] (the total amount of thrombin generated over time; […]), and rate (the velocity of thrombin generation dictated by the slope of the thrombin generation curve; nM/min).
# [2] = test system: thrombin generation; assay: Thrombin generation by calibrated automated thrombogram (CAT) in plasma treated ex vivo; type: biochemical, human; settings: for Delta ETP (%) / Delta Lagtime (%) / Delta Peak (%) / Delta Rate (%) / Delta ttPeak (%): enoxaparin 0.13 U/mL, median change vs baseline
# Excerpt: as §1, §2
# [3] = Healthy Donors (N = 15) plasma, enoxaparin 0.13 U/mL
# [4] = No PE patients (N = 46) plasma, enoxaparin 0.13 U/mL
# [5] = PE patients (N = 54) plasma, enoxaparin 0.13 U/mL
# [6] = Trauma Patients (N = 100) plasma, enoxaparin 0.13 U/mL
# [7] = Trauma Patients (N = 100) plasma
substance,measurement,setting,value
enoxaparin,Rate Anti FXa ≥ 0.13 (number),[1]; [3],15
same,Rate Anti FXa ≥ 0.13 (percentage),[1]; [3],(100%)
same,Anti FXa levels (IU/mL),[1]; [3],0.16 IU/mL
same,Rate Anti FXa ≥ 0.13 (number),[1]; [4],26
same,Rate Anti FXa ≥ 0.13 (percentage),[1]; [4],(57%)
same,Anti FXa levels (IU/mL),[1]; [4],0.14 IU/mL
same,Rate Anti FXa ≥ 0.13 (number),[1]; [5],24
same,Rate Anti FXa ≥ 0.13 (percentage),[1]; [5],(44%)
same,Anti FXa levels (IU/mL),[1]; [5],0.13 IU/mL
same,Rate Anti FXa ≥ 0.13 (number),[1]; [6],59
same,Rate Anti FXa ≥ 0.13 (percentage),"[1]; Trauma Patients (N = 100) plasma, enoxaparin 0.13 U/mL alone",(59%)*
same,Rate Anti FXa ≥ 0.13 (percentage),"[1]; Trauma Patients (N = 100) plasma, enoxaparin 0.13 U/mL alone, listed as enoxaparin",59%
same,Anti FXa levels (IU/mL),[1]; [6],0.13 IU/mL
same,Delta ETP (%),[2]; Healthy Donors (N = 15) plasma,−43%
same,Delta Lagtime (%),[2]; Healthy Donors (N = 15) plasma,6.6%
same,Delta Peak (%),[2]; Healthy Donors (N = 15) plasma,−55%
same,Delta Rate (%),[2]; Healthy Donors (N = 15) plasma,−65%
same,Delta ttPeak (%),[2]; Healthy Donors (N = 15) plasma,17%
same,Delta ETP (%),[2]; No PE patients (N = 46) plasma,−15.6%
same,Delta Lagtime (%),[2]; No PE patients (N = 46) plasma,6.6%
same,Delta Peak (%),[2]; No PE patients (N = 46) plasma,−30.6%
same,Delta Rate (%),[2]; No PE patients (N = 46) plasma,−45.4%
same,Delta ttPeak (%),[2]; No PE patients (N = 46) plasma,13.0%
same,Delta ETP (%),[2]; PE patients (N = 54) plasma,−13.2%
same,Delta Lagtime (%),[2]; PE patients (N = 54) plasma,7.9%
same,Delta Peak (%),[2]; PE patients (N = 54) plasma,−20.7%
same,Delta Rate (%),[2]; PE patients (N = 54) plasma,−34.2%
same,Delta ttPeak (%),[2]; PE patients (N = 54) plasma,10.7%
same,Delta ETP (%),[2]; [7],−14%
same,Delta Lagtime (%),[2]; [7],7.9%
same,Delta Peak (%),[2]; [7],−24%
same,Delta Rate (%),[2]; [7],−39%
same,Delta ttPeak (%),[2]; [7],12%
same,reduction in peak thrombin,"[2]; plasma of patients who did develop PE, ex vivo enoxaparin",20.7%
same,median reduction in peak thrombin,"[2]; plasma of patients who did not develop PE, ex vivo enoxaparin",30.6%

# Source: US20210308228A1, “METHOD FOR REDUCING THE OCCURRENCE OF THROMBOSIS OR THROMBOEMBOLISM” (THE BOARD OF REGENTS OF THE UNIVERSITY OF TEXAS SYSTEM, priority 2020, published 2021)
